Laboratory results taken from patent US20090318424A1, “NOVEL COMPOUNDS” (priority 2006, published 2009).
“Also recorded” adds a separate entry of the source.

Test system: influx of neutrophils to the lung in LPS-challenged rats
Assay: Rat LPS neutrophilia model
Assay type: in vivo
Conditions: LPS aerosol 100 ug/ml 15 min, lavage 4 hours later; in at least one of the range of conditions tested
Protocol: The effect of compounds on the influx of neutrophils to the lung in LPS-challenged rats is evaluated as follows. The test compound is suspended in one of the following solutions: 0.5% tween 80/PBS, 0.5% tween 80/saline, 10% EtOH/saline (with pH adjusted to 2.0, or 8.0 with HCl, or unadjusted), Saline @ pH 2.0, 6.5 or 8.0, 0.5% Tragacanth, 1% DMSO/20% Encapsin/Saline, or acidified 5% Tragacanth. The suspension process may be aided by the use of a glass homogenizer. For intratracheal administration, the animals are anesthetized with inhaled isoflurane and placed in a supine position, the trachea is intubated with a steel gavage needle (1.5 inch, 22 gauge, small ball) or a Penn-Century Microsprayer Aerosolizer (model IA-IB) and 200 ul of dosing solution is delivered. The animals are visually monitored during the recovery process, which typically occurs within two minutes.
Rats treated with compound or vehicle (15 min-24 hours pretreatment) are exposed to an LPS aerosol (100 ug/ml) for 15 min. Four hours later the rats are euthanized with pentobarbital (100 mg/kg, i.p.) and the airways are lavaged with 5 washes of 5 ml of phosphate buffered saline. The harvested cells are stained (Diffquick) and counted to determine total and differential cell data. In a typical study, macrophages represent 40-70% of the total cells, and polymorphonuclear cells 30-60% of the total cells. Inhibition of neutrophil levels relative to no compound controls is calculated based on the differential counts.
The assay has varying conditions, such as concentration, pretreat time, form of the compound (crystalline, amorphous, salts, micronised), and a wet or dry application of the compound. The data is obtained as % inhibition using a particular concentration and pretreat time.

Row | SMILES | inhibition of neutrophilia
1 | Cc1ccc(C(=O)NC(C)C)cc1-c1nc(N2CCC(N3CCN(C)CC3)CC2)nc2c1CNC(=O)N2c1c(F)cccc1F [Example 72, 3-{8-(2,6-difluorophenyl)-2-[4-(4-methyl-1-piperazinyl)-1-piperidinyl]-7-oxo-5,6,7,8-tetrahydropyrimido[4,5-d]pyrimidin-4-yl}-4-methyl-N-(1-methylethyl)benzamide] | statistically significant inhibition
2 | Cc1ccc(C(=O)Nc2nccs2)cc1-c1nc(NC[C@H](C)O)nc2c1CNC(=O)N2c1c(F)cccc1F [Example 134, 3-(8-(2,6-difluorophenyl)-2-{[(2S)-2-hydroxypropyl]amino}-7-oxo-5,6,7,8-tetrahydropyrimido[4,5-d]pyrimidin-4-yl)-4-methyl-N-1,3-thiazol-2-ylbenzamide] | statistically nonsignificant inhibition
3 | Cc1ccc(C(=O)NC(C)C)cc1-c1nc(N2CCC(N3CCCC3)CC2)nc2c1CNC(=O)N2c1c(F)cccc1F [Example 60, 3-{8-(2,6-difluorophenyl)-7-oxo-2-[4-(1-pyrrolidinyl)-1-piperidinyl]-5,6,7,8-tetrahydropyrimido[4,5-d]pyrimidin-4-yl}-4-methyl-N-(1-methylethyl)benzamide] | statistically nonsignificant inhibition; also recorded: inactive
4 | Cc1ccc(C(=O)NC(C)C)cc1-c1nc(NCCCN(C)C)nc2c1CNC(=O)N2c1c(F)cccc1F [Example 40, 3-(8-(2,6-difluorophenyl)-2-{[3-(dimethylamino)propyl]amino}-7-oxo-5,6,7,8-tetrahydropyrimido[4,5-d]pyrimidin-4-yl)-4-methyl-N-(1-methylethyl)benzamide] | statistically significant inhibition
5 | Cc1ccc(C(=O)Nc2ccc(F)cc2)cc1-c1nc(NCCN(C)C)nc2c1CNC(=O)N2c1c(F)cccc1F [8(c), 3-(8-(2,6-difluorophenyl)-2-{[2-(dimethylamino)ethyl]amino}-7-oxo-5,6,7,8-tetrahydropyrimido[4,5-d]pyrimidin-4-yl)-N-(4-fluorophenyl)-4-methylbenzamide] | statistically significant inhibition
6 | Cc1ccc(C(=O)NC(C)C)cc1-c1nc(NCCN(C)C)nc2c1CNC(=O)N2c1c(F)cccc1F [Example 37, 3-(8-(2,6-difluorophenyl)-2-{[2-(dimethylamino)ethyl]amino}-7-oxo-5,6,7,8-tetrahydropyrimido[4,5-d]pyrimidin-4-yl)-4-methyl-N-(1-methylethyl)benzamide] | statistically nonsignificant inhibition
7 | Cc1ccc(C(=O)Nc2nccs2)cc1-c1nc(NCCCN(C)C)nc2c1CNC(=O)N2c1c(F)cccc1F [Example 119, 3-(8-(2,6-difluorophenyl)-2-{[3-(dimethylamino)propyl]amino}-7-oxo-5,6,7,8-tetrahydropyrimido[4,5-d]pyrimidin-4-yl)-4-methyl-N-1,3-thiazol-2-ylbenzamide] | statistically significant inhibition
8 | Cc1ccc(C(=O)NC(C)C)cc1-c1nc(N2CCC(N3CCCCC3)CC2)nc2c1CNC(=O)N2c1c(F)cccc1F [Example 57, 3-[2-(1,4′-bipiperidin-1′-yl)-8-(2,6-difluorophenyl)-7-oxo-5,6,7,8-tetrahydropyrimido[4,5-d]pyrimidin-4-yl]-4-methyl-N-(1-methylethyl)benzamide] | statistically nonsignificant inhibition
9 | CCN(CC)CCCNc1nc(-c2cc(C(=O)Nc3nccs3)ccc2C)c2c(n1)N(c1c(F)cccc1F)C(=O)NC2 [Example 120, 3-[2-{[3-(diethylamino)propyl]amino}-8-(2,6-difluorophenyl)-7-oxo-5,6,7,8-tetrahydropyrimido[4,5-d]pyrimidin-4-yl]-4-methyl-N-1,3-thiazol-2-ylbenzamide] | statistically significant inhibition
10 | COc1ccc(NC(=O)c2ccc(C)c(-c3nc(NCCN(C)C)nc4c3CNC(=O)N4c3c(F)cccc3F)c2)cn1 [Example 140, 3-(8-(2,6-difluorophenyl)-2-{[2-(dimethylamino)ethyl]amino}-7-oxo-5,6,7,8-tetrahydropyrimido[4,5-d]pyrimidin-4-yl)-4-methyl-N-[6-(methyloxy)-3-pyridinyl]benzamide] | statistically significant inhibition
11 | CCCNC(=O)c1ccc(C)c(-c2nc(NCCCN(CC)CC)nc3c2CNC(=O)N3c2c(F)cccc2F)c1 [29(c), 3-[2-{[3-(diethylamino)propyl]amino}-8-(2,6-difluorophenyl)-7-oxo-5,6,7,8-tetrahydropyrimido[4,5-d]pyrimidin-4-yl]-4-methyl-N-propylbenzamide] | statistically significant inhibition
12 | CSc1ccc(NC(=O)c2ccc(C)c(-c3nc(NCCN(C)C)nc4c3CNC(=O)N4c3c(F)cccc3F)c2)cc1 [Example 127, 3-(8-(2,6-difluorophenyl)-2-{[2-(dimethylamino)ethyl]amino}-7-oxo-5,6,7,8-tetrahydropyrimido[4,5-d]pyrimidin-4-yl)-4-methyl-N-[4-(methylthio)phenyl]benzamide] | statistically significant inhibition
13 | Cc1ccc(C(=O)NC(C)C)cc1-c1nc(N(C)CCN(C)C)nc2c1CNC(=O)N2c1c(F)cccc1F [Example 36, 3-{8-(2,6-difluorophenyl)-2-[[2-(dimethylamino)ethyl](methyl)amino]-7-oxo-5,6,7,8-tetrahydropyrimido[4,5-d]pyrimidin-4-yl}-4-methyl-N-(1-methylethyl)benzamide] | statistically significant inhibition
14 | Cc1ccc(C(=O)Nc2ccc(F)cc2)cc1-c1nc(N2CCC(N3CCCCC3)CC2)nc2c1CNC(=O)N2c1c(F)cccc1F [87(b), 3-[2-(1,4′-bipiperidin-1′-yl)-8-(2,6-difluorophenyl)-7-oxo-5,6,7,8-tetrahydropyrimido[4,5-d]pyrimidin-4-yl]-N-(4-fluorophenyl)-4-methylbenzamide] | statistically nonsignificant inhibition
15 | Cc1ccc(C(=O)Nc2ccc(F)c(F)c2)cc1-c1nc(NCCN(C)C)nc2c1CNC(=O)N2c1c(F)cccc1F [Example 138, N-(3,4-difluorophenyl)-3-(8-(2,6-difluorophenyl)-2-{[2-(dimethylamino)-ethyl]amino}-7-oxo-5,6,7,8-tetrahydropyrimido[4,5-d]pyrimidin-4-yl)-4-methylbenzamide] | statistically significant inhibition
16 | CN(C)CCNc1nc(-c2cccc(C(=O)Nc3nccs3)c2)c2c(n1)N(c1c(F)cccc1F)C(=O)NC2 [Example 92, 3-(8-(2,6-difluorophenyl)-2-{[2-(dimethylamino)ethyl]amino}-7-oxo-5,6,7,8-tetrahydropyrimido[4,5-d]pyrimidin-4-yl)-N-1,3-thiazol-2-ylbenzamide] | statistically significant inhibition
17 | Cc1ccc(C(=O)Nc2ccccc2)cc1-c1nc(NCCN(C)C)nc2c1CNC(=O)N2c1c(F)cccc1F [Example 137, 3-(8-(2,6-difluorophenyl)-2-{[2-(dimethylamino)ethyl]amino}-7-oxo-5,6,7,8-tetrahydropyrimido[4,5-d]pyrimidin-4-yl)-4-methyl-N-phenylbenzamide] | statistically significant inhibition
18 | CN(C)CCNc1nc(-c2cccc(C(=O)Nc3ccc(F)cc3)c2)c2c(n1)N(c1c(F)cccc1F)C(=O)NC2 [Example 93, 3-(8-(2,6-difluorophenyl)-2-{[2-(dimethylamino)ethyl]amino}-7-oxo-5,6,7,8-tetrahydropyrimido[4,5-d]pyrimidin-4-yl)-N-(4-fluorophenyl)benzamide] | statistically nonsignificant inhibition
19 | CCc1ccc(C(=O)Nc2nccs2)cc1-c1nc(NCCN(C)C)nc2c1CNC(=O)N2c1c(F)cccc1F [Example 144, 3-(8-(2,6-difluorophenyl)-2-{[2-(dimethylamino)ethyl]amino}-7-oxo-5,6,7,8-tetrahydropyrimido[4,5-d]pyrimidin-4-yl)-4-ethyl-N-1,3-thiazol-2-ylbenzamide Trilfluoroacetate] | statistically significant inhibition
20 | Cc1ccc(C(=O)Nc2ccc(F)cc2)cc1-c1nc(N(C)CCN(C)C)nc2c1CNC(=O)N2c1c(F)cccc1F [Example 32, 3-{8-(2,6-difluorophenyl)-2-[[2-(dimethylamino)ethyl](methyl)amino]-7-oxo-5,6,7,8-tetrahydropyrimido[4,5-d]pyrimidin-4-yl}-N-(4-fluorophenyl)-4-methylbenzamide] | statistically nonsignificant inhibition
21 | Cc1ccc(C(=O)Nc2ccc(F)cc2)cc1-c1nc(NC2CCN(C)CC2)nc2c1CNC(=O)N2c1c(F)cccc1F [Example 39, 3-{8-(2,6-difluorophenyl)-2-[(1-methyl-4-piperidinyl)amino]-7-oxo-5,6,7,8-tetrahydropyrimido[4,5-d]pyrimidin-4-yl}-N-(4-fluorophenyl)-4-methylbenzamide] | statistically nonsignificant inhibition
